The test system of experiment [1] is Micrococcus luteus. Description: Antibacterial activity against Micrococcus luteus MTCC 1538 assessed as growth inhibition after 24 hr by tube dilution method. In kind it is functional. Conditions: MTCC 1538, 24 h.
Experiment [2] has as its system Pseudomonas aeruginosa. Briefly: Antibacterial activity against Pseudomonas aeruginosa MTCC 424 assessed as growth inhibition after 24 hr by tube dilution method. In kind it is functional. Conditions: MTCC 424, 24 h.
Experiment [3] deals with Pseudomonas fluorescens. Description: Antibacterial activity against Pseudomonas fluorescens MTCC 2421 assessed as growth inhibition after 24 hr by tube dilution method. The class given is functional. The note with it: MTCC 2421, 24 h.
Experiment [4] concerns Bacillus pumilus. Briefly: Antibacterial activity against Bacillus pumilus MTCC 1456 assessed as growth inhibition after 24 hr by tube dilution method. The class given is functional. Conditions: MTCC 1456, 24 h.
The test system of experiment [5] is Bacillus subtilis. Briefly: Antibacterial activity against Bacillus subtilis MTCC 441 assessed as growth inhibition at 750 ug/mL after 48 hr by agar diffusion method. In kind it is functional. Conditions: MTCC 441, 48 h, read-out: DIZ. In general terms: In agar diffusion tests the substance spreads into inoculated agar from a disc or well.
Experiment [6] concerns Bacillus subtilis. Description: Antibacterial activity against Bacillus subtilis MTCC 441 assessed as growth inhibition at 100 ug/mL after 48 hr by agar diffusion method. The note with it: for zone of inhibition at 100 µg/mL: MTCC 441, 48 h, read-out: DIZ. In kind it is functional.
The next experiment deals with Penicillium chrysogenum. Briefly: Antifungal activity against Penicillium chrysogenum MTCC 161 assessed as growth inhibition at 1000 ug/mL after 48 hr by agar diffusion method. In kind it is functional. The note with it: MTCC 161, 48 h, read-out: DIZ.
The next experiment has as its system Aspergillus niger. Briefly: Antifungal activity against Aspergillus niger MTCC 2546 assessed as growth inhibition at 1000 ug/mL after 48 hr by agar diffusion method. In kind it is functional. The note with it: MTCC 2546, 48 h, read-out: DIZ.
Experiment [7] relates to Pseudomonas fluorescens. Briefly: Antibacterial activity against Pseudomonas fluorescens MTCC 2421 assessed as growth inhibition at 500 ug/mL after 48 hr by agar diffusion method. The class given is functional. Conditions: MTCC 2421, 48 h, read-out: DIZ.
Experiment [8] relates to Pseudomonas fluorescens. Briefly: Antibacterial activity against Pseudomonas fluorescens MTCC 2421 assessed as growth inhibition at 250 ug/mL after 48 hr by agar diffusion method. In kind it is functional. Conditions: MTCC 2421, 48 h, read-out: DIZ.
Experiment [9] concerns Micrococcus luteus. Briefly: Antibacterial activity against Micrococcus luteus MTCC 1538 assessed as growth inhibition at 500 ug/mL after 48 hr by agar diffusion method. In kind it is functional. The note with it: MTCC 1538, 48 h, read-out: DIZ.
Experiment [10] concerns Micrococcus luteus. Description: Antibacterial activity against Micrococcus luteus MTCC 1538 assessed as growth inhibition at 250 ug/mL after 48 hr by agar diffusion method. In kind it is functional. Conditions: for zone of inhibition at 250 µg/mL: MTCC 1538, 48 h, read-out: DIZ.
For experiment [11], the system named is Bacillus pumilus. Briefly: Antibacterial activity against Bacillus pumilus MTCC 1456 assessed as growth inhibition at 1250 ug/mL after 48 hr by agar diffusion method. In kind it is functional. Conditions: MTCC 1456, 48 h, read-out: DIZ.
Experiment [12] concerns Bacillus pumilus. Briefly: Antibacterial activity against Bacillus pumilus MTCC 1456 assessed as growth inhibition at 750 ug/mL after 48 hr by agar diffusion method. In kind it is functional. Conditions: MTCC 1456, 48 h, read-out: DIZ.
The subject of experiment [13] is Bacillus pumilus. Briefly: Antibacterial activity against Bacillus pumilus MTCC 1456 assessed as growth inhibition at 500 ug/mL after 48 hr by agar diffusion method. The note with it: MTCC 1456, 48 h, read-out: DIZ. The class given is functional.
Experiment [14] has as its system Staphylococcus aureus. Description: Antibacterial activity against Staphylococcus aureus MTCC 1430 assessed as growth inhibition at 1250 ug/mL after 48 hr by agar diffusion method. In kind it is functional. Conditions: MTCC 1430, 48 h, read-out: DIZ.
For experiment [15], the system named is Staphylococcus aureus. Briefly: Antibacterial activity against Staphylococcus aureus MTCC 1430 assessed as growth inhibition at 750 ug/mL after 48 hr by agar diffusion method. In kind it is functional. The note with it: MTCC 1430, 48 h, read-out: DIZ.
In experiment [16] the test system is Staphylococcus aureus. Description: Antibacterial activity against Staphylococcus aureus MTCC 1430 assessed as growth inhibition at 500 ug/mL after 48 hr by agar diffusion method. The class given is functional. The note with it: MTCC 1430, 48 h, read-out: DIZ.
Experiment [17] concerns Staphylococcus aureus. Briefly: Antibacterial activity against Staphylococcus aureus MTCC 1430 assessed as growth inhibition at 250 ug/mL after 48 hr by agar diffusion method. The class given is functional. Conditions: for zone of inhibition at 250 µg/mL: MTCC 1430, 48 h, read-out: DIZ.
For experiment [18], the system named is Staphylococcus aureus. Description: Antibacterial activity against Staphylococcus aureus MTCC 1430 assessed as growth inhibition at 100 ug/mL after 48 hr by agar diffusion method. The class given is functional, organism-based.
Experiment [19] deals with Micrococcus luteus. Briefly: Antibacterial activity against Micrococcus luteus MTCC 1538 assessed as growth inhibition at 1000 ug/mL after 48 hr by agar diffusion method. In kind it is functional. The note with it: MTCC 1538, 48 h, read-out: DIZ.
Another experiment has as its system Escherichia coli. Description: Antibacterial activity against Escherichia coli MTCC 1573 assessed as growth inhibition at 100 ug/mL after 48 hr by agar diffusion method. The class given is functional. The note with it: for zone of inhibition at 100 µg/mL: MTCC 1573, 48 h, read-out: DIZ.
Experiment [20] concerns Pseudomonas aeruginosa. Description: Antibacterial activity against Pseudomonas aeruginosa MTCC 424 assessed as growth inhibition at 1250 ug/mL after 48 hr by agar diffusion method. In kind it is functional. Conditions: MTCC 424, 48 h, read-out: DIZ.
Experiment [21] deals with Pseudomonas aeruginosa. Description: Antibacterial activity against Pseudomonas aeruginosa MTCC 424 assessed as growth inhibition at 1000 ug/mL after 48 hr by agar diffusion method. In kind it is functional. Conditions: MTCC 424, 48 h, read-out: DIZ.

≈ marks a conversion by molar mass, not a printed value. Calls of active or inactive are those of the source.

Regarding `O=C1CSC(c2ccccn2)N1c1nnc2c3cc(Cl)ccc3nc-2s1` (configuration not stated), the minimum inhibitory concentration (MIC) – broadly, the smallest concentration in the dilution series that meets the test's criterion for growth inhibition – in the experiment on Micrococcus luteus [1] stood at 250 µg/mL (≈ 625 µM); in the experiment with Pseudomonas aeruginosa [2] it was 30 µg/mL (≈ 75 µM); with Pseudomonas fluorescens [3], 50 µg/mL (≈ 125 µM); in the experiment with Bacillus pumilus [4], 50 µg/mL (≈ 125 µM). Also, the values for the zone of inhibition at 750 µg/mL in the experiment on Bacillus subtilis [5], in the experiment with Bacillus pumilus [12] and with Staphylococcus aureus [15] were 14 mm, 18 mm and 11 mm, respectively. Besides, the “growth inhibition (GI)” value in the experiment with Bacillus subtilis [6], with Staphylococcus aureus [18] and in the experiment with Escherichia coli was “inactive” in each case. In addition, the zone of inhibition at 1000 µg/mL is 18 mm with Penicillium chrysogenum, 18 mm in the experiment on Aspergillus niger, 15 mm in the experiment on Micrococcus luteus [19] and 18 mm in the experiment with Pseudomonas aeruginosa [21]. The zone of inhibition at 500 µg/mL came out at 11 mm in the experiment with Pseudomonas fluorescens [7], 8 mm in the experiment with Micrococcus luteus [9], 15 mm with Bacillus pumilus [13] and 9 mm with Staphylococcus aureus [16]. Besides, the zone of inhibition at 250 µg/mL in the experiment on Pseudomonas fluorescens [8] was determined as 8 mm; with Micrococcus luteus [10] it was 7 mm; with Staphylococcus aureus [17], 7 mm. Moreover, the results for the zone of inhibition at 1250 µg/mL in the experiment on Bacillus pumilus [11], in the experiment on Staphylococcus aureus [14] and in the experiment on Pseudomonas aeruginosa [20] were 23 mm, 17 mm and 20 mm, respectively.

Take `O=C1CSC(c2cccc3ccccc23)N1c1nnc2c3ccccc3nc-2s1` (configuration not stated): the minimal inhibitory concentration (MIC) in the experiment on Micrococcus luteus [1] stood at 250 µg/mL (≈ 603 µM); in the experiment on Pseudomonas aeruginosa [2] it was 40 µg/mL (≈ 96.5 µM); with Pseudomonas fluorescens [3], 40 µg/mL (≈ 96.5 µM); in the experiment with Bacillus pumilus [4], 20 µg/mL (≈ 48.2 µM). Besides, the zone of inhibition at 750 µg/mL is 15 mm in the experiment with Bacillus subtilis [5], 15 mm in the experiment with Bacillus pumilus [12] and 12 mm in the experiment on Staphylococcus aureus [15]. Further, the zone of inhibition at 100 µg/mL with Bacillus subtilis [6] and in the experiment with Escherichia coli was 8 mm in each case. Further, the zone of inhibition at 1000 µg/mL was 12 mm in the experiment with Penicillium chrysogenum, 15 mm with Aspergillus niger, 14 mm in the experiment on Micrococcus luteus [19] and 17 mm in the experiment on Pseudomonas aeruginosa [21]. The zone of inhibition at 500 µg/mL in the experiment with Pseudomonas fluorescens [7] was determined as 14 mm; with Micrococcus luteus [9], 8 mm; in the experiment on Bacillus pumilus [13], 11 mm; with Staphylococcus aureus [16], 10 mm. In addition, the zone of inhibition at 250 µg/mL turned out to be 10 mm with Pseudomonas fluorescens [8] and 8 mm with Staphylococcus aureus [17]. Further, the “growth inhibition (GI)” value in the experiment with Micrococcus luteus [10] and in the experiment on Staphylococcus aureus [18] was “inactive” throughout. The zone of inhibition at 1250 µg/mL is 26 mm with Bacillus pumilus [11], 18 mm in the experiment on Staphylococcus aureus [14] and 20 mm in the experiment on Pseudomonas aeruginosa [20].

For the compound `CC1SCC(=O)N1c1nnc2c3ccccc3nc-2s1` (configuration not stated), the minimal inhibitory concentration (MIC) in the experiment on Micrococcus luteus [1] is 40 µg/mL (≈ 132 µM); in the experiment on Pseudomonas aeruginosa [2], 30 µg/mL (≈ 99.2 µM); with Pseudomonas fluorescens [3], 30 µg/mL (≈ 99.2 µM); in the experiment with Bacillus pumilus [4], 30 µg/mL (≈ 99.2 µM). The zone of inhibition at 750 µg/mL worked out at 18 mm in the experiment with Bacillus subtilis [5], 18 mm in the experiment with Bacillus pumilus [12] and 11 mm in the experiment on Staphylococcus aureus [15]. The zone of inhibition at 100 µg/mL with Bacillus subtilis [6] turned out to be 10 mm; in the experiment on Escherichia coli, 7 mm. Also, the zone of inhibition at 1000 µg/mL stood at 15 mm with Penicillium chrysogenum, 14 mm with Aspergillus niger, 17 mm in the experiment on Micrococcus luteus [19] and 20 mm with Pseudomonas aeruginosa [21]. The zone of inhibition at 500 µg/mL in the experiment on Pseudomonas fluorescens [7] amounted to 13 mm; in the experiment with Micrococcus luteus [9], 12 mm; in the experiment with Bacillus pumilus [13], 12 mm; with Staphylococcus aureus [16] it was 8 mm. In addition, the zone of inhibition at 250 µg/mL in the experiment on Pseudomonas fluorescens [8] and in the experiment with Micrococcus luteus [10] was 10 mm throughout. The zone of inhibition at 1250 µg/mL came out at 25 mm with Bacillus pumilus [11], 17 mm in the experiment with Staphylococcus aureus [14] and 24 mm with Pseudomonas aeruginosa [20]. Besides, the “growth inhibition (GI)” value in the experiment on Staphylococcus aureus [17] and in the experiment on Staphylococcus aureus [18] was “inactive” in each case.

The record behind these values is ChEMBL document CHEMBL3046001, “4-Thiazolidinone and 1-thia-3,4,9-triaza fluorene conjugates: synthesis, characterization and antimicrobial screening” (2013).
